From patent US20240109853A1 (Shanghai Yao Yuan Biotechnology Co., Ltd., priority 2020, published 2024)
pIC50: −log10 of the molar value.

Key:
ALPK1 = ALPK1 (Homo sapiens (Human), UniProt Q96QP1); assay: ALPK1 in vitro kinase assay (HTRF of TIFA phosphorylation); type: biochemical
[1] = test system: ALPK1-dependent NFκB reporter gene activation in HEK293 cells stably expressing an NF-kB reporter (G9 cells); assay: NFκB gene reporter alkaline phosphatase assay; type: cell-based; details: Homo sapiens, HEK293; read-out: NFkB assay IC50
Procedure, shortened: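 Inhibition of ALPK1-driven NF-kB activation is measured as reduced reporter phosphatase activity after agonist challenge with D-glycero-D-manno-6-fluoro-heptose-1β-S-ADP. Cells receive serially diluted compound 30 min beforehand. Values are IC50s from non-linear regression.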

Chain of ALPK1 (Q96QP1 whole entry): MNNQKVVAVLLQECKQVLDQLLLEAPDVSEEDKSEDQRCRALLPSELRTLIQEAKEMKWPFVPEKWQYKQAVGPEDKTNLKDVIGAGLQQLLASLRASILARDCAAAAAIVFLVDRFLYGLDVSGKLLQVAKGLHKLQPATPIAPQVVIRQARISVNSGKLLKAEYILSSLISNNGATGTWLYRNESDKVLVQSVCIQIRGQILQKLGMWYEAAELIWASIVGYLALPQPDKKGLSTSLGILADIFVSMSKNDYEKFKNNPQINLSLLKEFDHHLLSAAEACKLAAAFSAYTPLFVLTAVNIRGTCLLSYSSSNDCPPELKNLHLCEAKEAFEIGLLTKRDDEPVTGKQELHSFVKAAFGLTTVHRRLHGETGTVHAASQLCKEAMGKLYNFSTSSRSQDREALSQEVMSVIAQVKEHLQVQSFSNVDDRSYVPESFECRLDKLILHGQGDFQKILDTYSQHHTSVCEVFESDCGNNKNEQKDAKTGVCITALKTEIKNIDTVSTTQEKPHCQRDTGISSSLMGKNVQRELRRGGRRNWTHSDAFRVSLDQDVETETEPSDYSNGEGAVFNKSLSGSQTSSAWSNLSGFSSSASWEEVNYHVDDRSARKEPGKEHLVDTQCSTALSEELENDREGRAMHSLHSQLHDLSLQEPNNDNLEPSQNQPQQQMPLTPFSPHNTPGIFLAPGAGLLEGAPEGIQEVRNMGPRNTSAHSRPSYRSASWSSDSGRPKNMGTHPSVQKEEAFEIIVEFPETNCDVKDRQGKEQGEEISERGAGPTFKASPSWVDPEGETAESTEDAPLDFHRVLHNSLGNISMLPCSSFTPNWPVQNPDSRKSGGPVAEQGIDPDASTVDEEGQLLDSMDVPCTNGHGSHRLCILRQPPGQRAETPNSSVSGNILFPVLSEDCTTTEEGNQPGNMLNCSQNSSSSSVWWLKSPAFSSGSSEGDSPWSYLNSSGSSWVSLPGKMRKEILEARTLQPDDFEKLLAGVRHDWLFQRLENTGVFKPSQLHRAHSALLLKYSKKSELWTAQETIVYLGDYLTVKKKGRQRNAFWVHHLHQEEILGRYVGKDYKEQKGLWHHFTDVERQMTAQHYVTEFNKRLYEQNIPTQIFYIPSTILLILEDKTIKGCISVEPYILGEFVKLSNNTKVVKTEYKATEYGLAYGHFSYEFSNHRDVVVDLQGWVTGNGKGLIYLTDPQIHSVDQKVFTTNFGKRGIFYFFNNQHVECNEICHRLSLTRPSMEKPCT

In the case of `COc1ccc(C(C)(C)c2csc(NC(=O)NCc3ccc(N4CCC(O)CC4)cc3)n2)cc1` [Example A139, 1-(4-(4-hydroxypiperidin-1-yl)benzyl)-3-(4-(2-(4-methoxyphenyl)propan-2-yl)thiazol-2-yl)urea], the pIC50 (ALPK1) was 6.58 and the pIC50 [1] was 5.87.

`COc1ccc(C(C)(C)c2csc(NC(=O)NCc3ccc(CO)cc3)n2)cc1` [Example A140, 1-(4-(hydroxymethyl)benzyl)-3-(4-(2-(4-methoxyphenyl)propan-2-yl)thiazol-2-yl)urea] showed a pIC50 (ALPK1) of 6.88 and a pIC50 [1] of 5.26.

`COc1ccc(C(C)(C)c2csc(NC(=O)NCCCN3CCC(N(C)C)C3)n2)cc1` (stereo not drawn) [Example A141, 1-(3-(3-(dimethylamino)pyrrolidin-1-yl)propyl)-3-(4-(2-(4-methoxyphenyl)propan-2-yl)thiazol-2-yl)urea] was tested, and the pIC50 (ALPK1) was 6.64 and the pIC50 [1] was 5.37.

With `COc1ccc(C(C)(C)c2csc(NC(=O)NCCCN3CCN(C)CC3)n2)cc1` [Example A142, 1-(4-(2-(4-methoxyphenyl)propan-2-yl)thiazol-2-yl)-3-(3-(4-methylpiperazin-1-yl)propyl)urea] the pIC50 (ALPK1) was 6.74 and the pIC50 [1] was 5.88.

In the case of `COc1ccc(C(C)(C)c2csc(NC(=O)NO)n2)cc1` [Example A144, 1-hydroxy-3-(4-(2-(4-methoxyphenyl)propan-2-yl)thiazol-2-yl)urea], the pIC50 (ALPK1) was 6.81 and the pIC50 [1] was 5.76.

Molecule `COc1ccc(C(C)(C)c2csc(NC(=O)NCCCN(C)C)n2)cc1` [Example A145, 1-(3-(dimethylamino)propyl)-3-(4-(2-(4-methoxyphenyl)propan-2-yl)thiazol-2-yl)urea] has a pIC50 (ALPK1) of 6.67 and a pIC50 [1] of 5.35.

For `CCN(CC)CCCNC(=O)Nc1nc(C(C)(C)c2ccc(OC)cc2)cs1` [Example A146, 1-(3-(diethylamino)propyl)-3-(4-(2-(4-methoxyphenyl)propan-2-yl)thiazol-2-yl)urea], the pIC50 (ALPK1) was 6.91 and the pIC50 [1] was 5.51.

`CNS(=O)(=O)CCCNC(=O)Nc1nc(C(C)(C)c2ccc(OC)cc2)cs1` [Example A148, 3-(3-(4-(2-(4-methoxyphenyl)propan-2-yl)thiazol-2-yl)ureido)-N-methylpropane-1-sulfonamide] was tested, and the pIC50 (ALPK1) was 7.35 and the pIC50 [1] was 6.07.

`CNS(=O)(=O)[C@H]1C[C@@H](CNC(=O)Nc2nc(C(C)(C)c3ccc(OC)cc3)cs2)C1` [Example A149, rac-(1s,3s)-3-((3-(4-(2-(4-methoxyphenyl)propan-2-yl)thiazol-2-yl)ureido)methyl)-N-methylcyclobutane-1-sulfonamide] was tested, and the pIC50 (ALPK1) was 6.81 and the pIC50 [1] was 5.03.

Molecule `CNS(=O)(=O)[C@H]1C[C@H](CNC(=O)Nc2nc(C(C)(C)c3ccc(OC)cc3)cs2)C1` [Example A150, rac-(1r,3r)-3-((3-(4-(2-(4-methoxyphenyl)propan-2-yl)thiazol-2-yl)ureido)methyl)-N-methylcyclobutane-1-sulfonamide] has a pIC50 (ALPK1) of 7.60 and a pIC50 [1] of 5.85.

In the case of `COc1ccc(C(C)(C)c2csc(NC(=O)NC(C)c3cc(F)c(N4CCNCC4)c(F)c3)n2)cc1` (stereo not drawn) [Example A152, 1-(1-(3,5-difluoro-4-(piperazin-1-yl)phenyl)ethyl)-3-(4-(2-(4-methoxyphenyl)propan-2-yl)thiazol-2-yl)urea], the pIC50 (ALPK1) was 7.26 and the pIC50 [1] was 6.46.

Work on `C#CC(C)(c1ccc(Br)cc1)c1csc(NC(=O)N2CC(O)C2)n1` (stereo not drawn) [Example A153, N-(4-(2-(4-bromophenyl)but-3-yn-2-yl)thiazol-2-yl)-3-hydroxyazetidine-1-carboxamide] yielded a pIC50 (ALPK1) of 7.12 and a pIC50 [1] of 6.43.

`C#CC(C)(c1ccc(Br)cc1)c1csc(NC(=O)NCCCO)n1` (stereo not drawn) [Example A154, 1-(4-(2-(4-bromophenyl)but-3-yn-2-yl)thiazol-2-yl)-3-(3-hydroxypropyl)urea] was tested, and the pIC50 (ALPK1) was 7.68 and the pIC50 [1] was 6.42.

Molecule `C#CC(C)(c1ccc(Br)cc1)c1csc(NC(=O)NCCN2CCOCC2)n1` (stereo not drawn) [Example A155, 1-(4-(2-(4-bromophenyl)but-3-yn-2-yl)thiazol-2-yl)-3-(2-morpholinoethyl)urea] has a pIC50 (ALPK1) of 7.52 and a pIC50 [1] of 6.05.

Molecule `C#CC(C)(c1ccc(Br)cc1)c1csc(NC(=O)NCC(O)CO)n1` (stereo not drawn) [Example A156, 1-(4-(2-(4-bromophenyl)but-3-yn-2-yl)thiazol-2-yl)-3-(2,3-dihydroxypropyl)urea] has a pIC50 (ALPK1) of 7.66 and a pIC50 [1] of 6.42.

Molecule `C#CC(CC)(c1ccc(Br)cc1)c1csc(NC(=O)NCCO)n1` (stereo not drawn) [Example A157, 1-(4-(3-(4-bromophenyl)pent-1-yn-3-yl)thiazol-2-yl)-3-(2-hydroxyethyl)urea] has a pIC50 (ALPK1) of 7.66 and a pIC50 [1] of 5.87.

`O=C(NCCO)Nc1nc(C2(c3ccc(Br)cc3)CCC2)cs1` [Example A158, 1-(4-(1-(4-bromophenyl)cyclobutyl)thiazol-2-yl)-3-(2-hydroxyethyl)urea] showed a pIC50 (ALPK1) of 7.17 and a pIC50 [1] of 5.54.

Molecule `C#CC(C)(c1ccc(Br)cc1)c1csc(NC(=O)NCCO)n1` (stereo not drawn) [Example A159, 1-(4-(2-(4-bromophenyl)but-3-yn-2-yl)thiazol-2-yl)-3-(4-hydroxyethyl)urea] has a pIC50 (ALPK1) of 7.32 and a pIC50 [1] of 6.31.

`C#C[C@@](C)(c1ccc(Br)cc1)c1csc(NC(=O)NCCO)n1` [Example A160, (S)-1-(4-(2-(4-bromophenyl)but-3-yn-2-yl)thiazol-2-yl)-3-(2-hydroxyethyl)urea] gave a pIC50 (ALPK1) of 8.00 and a pIC50 [1] of 6.77.

`C#C[C@](C)(c1ccc(Br)cc1)c1csc(NC(=O)NCCO)n1` [Example A161, (R)-1-(4-(2-(4-bromophenyl)but-3-yn-2-yl)thiazol-2-yl)-3-(2-hydroxyethyl)urea] gave a pIC50 (ALPK1) of 7.17 and a pIC50 [1] of 6.26.

With `C#CC(C)(c1ccc(Br)cc1)c1csc(NC(N)=O)n1` (stereo not drawn) [Example A162, 1-(4-(2-(4-bromophenyl)but-3-yn-2-yl)thiazol-2-yl)urea] the pIC50 (ALPK1) was 7.42 and the pIC50 [1] was 6.74.

With `C#CC(C)(c1ccc(Br)cc1)c1csc(NC(=O)N2CC(CO)C2)n1` (stereo not drawn) [Example A165, N-(4-(2-(4-bromophenyl)but-3-yn-2-yl)thiazol-2-yl)-3-(hydroxymethyl)azetidine-1-carboxamide] the pIC50 (ALPK1) was 6.86 and the pIC50 [1] was 6.14.

`C#C[C@](C)(c1ccc(Br)cc1)c1csc(NC(=O)N2CC(CO)C2)n1` [Example A166, (R)-N-(4-(2-(4-bromophenyl)but-3-yn-2-yl)thiazol-2-yl)-3-(hydroxymethyl)azetidine-1-carboxamide] showed a pIC50 (ALPK1) of 7.60 and a pIC50 [1] of 5.24.

`C#C[C@@](C)(c1ccc(Br)cc1)c1csc(NC(=O)N2CC(CO)C2)n1` [Example A167, (S)-N-(4-(2-(4-bromophenyl)but-3-yn-2-yl)thiazol-2-yl)-3-(hydroxymethyl)azetidine-1-carboxamide] gave a pIC50 (ALPK1) of 8.15 and a pIC50 [1] of 6.13.

In the case of `C#CC(C)(c1ccc(OC)cc1)c1csc(NC(=O)NCCO)n1` (stereo not drawn) [Example A168, 1-(2-hydroxyethyl)-3-(4-(2-(4-methoxyphenyl)but-3-yn-2-yl)thiazol-2-yl)urea], the pIC50 (ALPK1) was 7.57 and the pIC50 [1] was 6.40.

`C#C[C@](C)(c1ccc(OC)cc1)c1csc(NC(=O)NCCO)n1` [Example A169, (R)-1-(2-hydroxyethyl)-3-(4-(2-(4-methoxyphenyl)but-3-yn-2-yl)thiazol-2-yl)urea] gave a pIC50 (ALPK1) of 7.64 and a pIC50 [1] of 5.78.

`C#C[C@@](C)(c1ccc(OC)cc1)c1csc(NC(=O)NCCO)n1` [Example A170, (S)-1-(2-hydroxyethyl)-3-(4-(2-(4-methoxyphenyl)but-3-yn-2-yl)thiazol-2-yl)urea] gave a pIC50 (ALPK1) of 8.10 and a pIC50 [1] of 6.34.

`C#CC(C)(c1ccc(OC)cc1)c1csc(NC(N)=O)n1` (stereo not drawn) [Example A171, 1-(4-(2-(4-methoxyphenyl)but-3-yn-2-yl)thiazol-2-yl)urea] showed a pIC50 (ALPK1) of 7.80 and a pIC50 [1] of 6.14.

`C#C[C@](C)(c1ccc(OC)cc1)c1csc(NC(N)=O)n1` [Example A172, (R)-1-(4-(2-(4-methoxyphenyl)but-3-yn-2-yl)thiazol-2-yl)urea] gave a pIC50 (ALPK1) of 7.44 and a pIC50 [1] of 5.89.

Work on `C#C[C@@](C)(c1ccc(OC)cc1)c1csc(NC(N)=O)n1` [Example A173, (S)-1-(4-(2-(4-methoxyphenyl)but-3-yn-2-yl)thiazol-2-yl)urea] yielded a pIC50 (ALPK1) of 8.10 and a pIC50 [1] of 6.24.

`C#CC(C)(c1ccc(Cl)cc1)c1csc(NC(=O)NCCO)n1` (stereo not drawn) [Example A174, 1-(4-(2-(4-chlorophenyl)but-3-yn-2-yl)thiazol-2-yl)-3-(2-hydroxyethyl)urea] was tested, and the pIC50 (ALPK1) was 7.47 and the pIC50 [1] was 6.51.

For `CC(C)(c1ccc(Br)cc1)c1csc(NC(=O)NCCN2CCNCC2)n1` [Example A177, 1-(4-(2-(4-bromophenyl)propan-2-yl)thiazol-2-yl)-3-(2-(piperazin-1-yl)ethyl)urea], the pIC50 (ALPK1) was 6.60 and the pIC50 [1] was 5.78.

`CC(C)(c1ccc(Cl)c(F)c1)c1csc(NC(=O)NCc2cnc(N3CCNCC3)nc2)n1` [Example A179, 1-(4-(2-(4-chloro-3-fluorophenyl)propan-2-yl)thiazol-2-yl)-3-((2-(piperazin-1-yl)pyrimidin-5-yl)methyl)urea] gave a pIC50 (ALPK1) of 7.02 and a pIC50 [1] of 5.87.

`CC(C)(c1ccc(Br)cc1)c1csc(NC(=O)NCc2ccnc(N3CCNCC3)c2)n1` [Example A181, 1-(4-(2-(4-bromophenyl)propan-2-yl)thiazol-2-yl)-3-((2-(piperazin-1-yl)pyridin-4-yl)methyl)urea] was tested, and the pIC50 (ALPK1) was 6.88 and the pIC50 [1] was 5.82.

`CC(C)(c1ccc(Br)cc1)c1csc(NC(=O)NCc2cccc(N3CCNCC3)n2)n1` [Example A182, 1-(4-(2-(4-bromophenyl)propan-2-yl)thiazol-2-yl)-3-((6-(piperazin-1-yl)pyridin-2-yl)methyl)urea] was tested, and the pIC50 (ALPK1) was 6.79 and the pIC50 [1] was 5.37.

Work on `COc1ccc(C(C)(C)c2csc(NC(=O)NCc3ccc(NCCN)cc3)n2)cc1` [Example A183, 1-(4-((2-aminoethyl)amino)ben-yzl)-3-(4-(2-(4-methoxyphenyl)propan-2-yl)thiazol-2-yl)urea] yielded a pIC50 (ALPK1) of 7.28 and a pIC50 [1] of 5.64.
